ChEMBL document CHEMBL1201862, “PubChem BioAssay data set” (2004)
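Assay format: 96-well plates, 48-hour exposure. Here, GI50 denotes the concentration required for 50% inhibition of growth.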 Active and inactive are the calls of the source. Rule as the data show it: active = GI50 up to about 1.1 µM and inactive = higher.

How the values were obtained:
Experiment in all cases: NCI anticancer screen, dose series, 48 h
HL-60 = tested on: HL-60
NCI-H226 = tested on: NCI-H226
SK-OV-3 = tested on: SK-OV-3
SK-MEL-28 = tested on: SK-MEL-28
OVCAR-8 = tested on: OVCAR-8
786-0 = tested on: 786-0
HOP-62 = tested on: HOP-62
DMS-273 = tested on: DMS-273
RXF 393 = tested on: RXF 393
ACHN = tested on: ACHN
CAKI-1 = tested on: CAKI-1
SF-539 = tested on: SF-539
U-251 = tested on: U-251
TK-10 = tested on: TK-10
NCI-H23 = tested on: NCI-H23
NCI-H522 = tested on: NCI-H522
SF-295 = tested on: SF-295
SNB-19 = tested on: SNB-19
A498 = tested on: A498
A549 = tested on: A549
HCC 2998 = tested on: HCC 2998
NCI-H460 = tested on: NCI-H460
HCT-15 = tested on: HCT-15
SR = tested on: SR
K562 = tested on: K562
SN12C = tested on: SN12C
DMS-114 = tested on: DMS-114
CCRF-CEM = tested on: CCRF-CEM
UACC-62 = tested on: UACC-62
OVCAR-5 = tested on: OVCAR-5
SNB-78 = tested on: SNB-78
UACC-257 = tested on: UACC-257
RPMI-8226 = tested on: RPMI-8226
SW-620 = tested on: SW-620
HOP-18 = tested on: HOP-18
SK-MEL-2 = tested on: SK-MEL-2
COLO 205 = tested on: COLO 205
SK-MEL-5 = tested on: SK-MEL-5
M19-MEL = tested on: M19-MEL
OVCAR-4 = tested on: OVCAR-4
M14 = tested on: M14
Malme-3M = tested on: Malme-3M
SNB-75 = tested on: SNB-75
XF498 = tested on: XF498
MOLT-4 = tested on: MOLT-4
HT-29 = tested on: HT-29
KM-20L2 = tested on: KM-20L2
SF-268 = tested on: SF-268
UO-31 = tested on: UO-31
EKVX = tested on: EKVX
LXFL 529 = tested on: LXFL 529
HOP-92 = tested on: HOP-92
IGROV-1 = tested on: IGROV-1
KM12 = tested on: KM12
HCT-116 = tested on: HCT-116
OVCAR-3 = tested on: OVCAR-3
LOX IMVI = tested on: LOX IMVI
DLD-1 = tested on: DLD-1
MDA-MB-435 = tested on: MDA-MB-435
MCF7 = tested on: MCF7
MDA-N = tested on: MDA-N
BT-549 = tested on: BT-549
Hs-578T = tested on: Hs-578T
MDA-MB-231 = tested on: MDA-MB-231
PC-3 = tested on: PC-3
DU-145 = tested on: DU-145
T47D = tested on: T47D

## COC(=O)[C@@]12OC[C@]34C([C@@H](O)C1O)[C@@]1(C)CC(=O)C(OC(=O)CC(C)C(F)(F)F)=C(C)C1C[C@H]3OC(=O)[C@H](O)[C@H]42 (some centres undefined)
HL-60
  GI50: 0.268 µM (active)
NCI-H226
  GI50: 2.06 µM (inactive)
SK-OV-3
  GI50: 5.24 µM (inactive)
SK-MEL-28
  GI50: 1.53 µM (inactive)
OVCAR-8
  GI50: 4.71 µM (inactive)
786-0
  GI50: 1.92 µM (inactive)
HOP-62
  GI50: 15 µM (inactive)
DMS-273
  GI50: 0.379 µM (active)
RXF 393
  GI50: 4.62 µM (inactive)
ACHN
  GI50: 8.22 µM (inactive)
CAKI-1
  GI50: 9.4 µM (inactive)
SF-539
  GI50: 1.51 µM (inactive)
U-251
  GI50: 4.79 µM (inactive)
TK-10
  GI50: 5.51 µM (inactive)
NCI-H23
  GI50: 1.38 µM (inactive)
NCI-H522
  GI50: 3.46 µM (inactive)
SF-295
  GI50: 5.16 µM (inactive)
SNB-19
  GI50: 0.809 µM (active)
A498
  GI50: 0.156 µM (active)
A549
  GI50: 17.3 µM (inactive)
HCC 2998
  GI50: 2 µM (inactive)
NCI-H460
  GI50: 1.77 µM (inactive)
HCT-15
  GI50: > 62.5 µM
SR
  GI50: 2.73 µM (inactive)
K562
  GI50: 6.05 µM (inactive)
SN12C
  GI50: 2 µM (inactive)
DMS-114
  GI50: 1.44 µM (inactive)
CCRF-CEM
  GI50: 4.03 µM (inactive)
UACC-62
  GI50: 1.12 µM (active)
OVCAR-5
  GI50: 19.6 µM (inactive)
SNB-78
  GI50: 29.2 µM (inactive)
UACC-257
  GI50: 2.93 µM (inactive)
RPMI-8226
  GI50: 0.594 µM (active)
SW-620
  GI50: 1.21 µM (inactive)
HOP-18
  GI50: 1.99 µM (inactive)
SK-MEL-2
  GI50: 2.95 µM (inactive)
COLO 205
  GI50: 6.81 µM (inactive)
SK-MEL-5
  GI50: 1.63 µM (inactive)
M19-MEL
  GI50: 0.434 µM (active)
OVCAR-4
  GI50: 14.7 µM (inactive)
M14
  GI50: 1.99 µM (inactive)
Malme-3M
  GI50: 0.215 µM (active)
SNB-75
  GI50: 2.11 µM (inactive)
XF498
  GI50: 0.13 µM (active)
MOLT-4
  GI50: 0.771 µM (active)
HT-29
  GI50: 6.92 µM (inactive)
KM-20L2
  GI50: 3.8 µM (inactive)
SF-268
  GI50: 6.85 µM (inactive)
UO-31
  GI50: 10.6 µM (inactive)
EKVX
  GI50: 26.5 µM (inactive)
LXFL 529
  GI50: 3.81 µM (inactive)
HOP-92
  GI50: 0.887 µM (active)
IGROV-1
  GI50: 2.22 µM (inactive)
KM12
  GI50: 11.2 µM (inactive)
HCT-116
  GI50: 2.47 µM (inactive)

## Cc1c(C(=N)N)oc2ccccc12
HL-60
  GI50: > 100 µM (inactive)
NCI-H226
  GI50: > 100 µM (inactive)
SK-OV-3
  GI50: > 100 µM (inactive)
SK-MEL-28
  GI50: > 100 µM (inactive)
OVCAR-8
  GI50: > 100 µM (inactive)
786-0
  GI50: > 100 µM (inactive)
HOP-62
  GI50: > 100 µM (inactive)
RXF 393
  GI50: > 100 µM (inactive)
ACHN
  GI50: > 100 µM (inactive)
OVCAR-3
  GI50: > 100 µM (inactive)
CAKI-1
  GI50: > 100 µM (inactive)
SF-539
  GI50: > 100 µM (inactive)
U-251
  GI50: > 100 µM (inactive)
TK-10
  GI50: > 100 µM (inactive)
NCI-H23
  GI50: > 100 µM (inactive)
NCI-H522
  GI50: > 100 µM (inactive)
SF-295
  GI50: > 100 µM (inactive)
SNB-19
  GI50: > 100 µM (inactive)
A498
  GI50: > 100 µM (inactive)
A549
  GI50: > 100 µM (inactive)
HCC 2998
  GI50: > 100 µM (inactive)
NCI-H460
  GI50: > 100 µM (inactive)
SR
  GI50: > 100 µM (inactive)
K562
  GI50: > 100 µM (inactive)
SN12C
  GI50: > 100 µM (inactive)
DMS-114
  GI50: > 100 µM (inactive)
CCRF-CEM
  GI50: > 100 µM (inactive)
UACC-62
  GI50: > 100 µM (inactive)
SNB-78
  GI50: > 100 µM (inactive)
UACC-257
  GI50: > 100 µM (inactive)
SW-620
  GI50: > 100 µM (inactive)
HOP-18
  GI50: > 100 µM (inactive)
COLO 205
  GI50: > 100 µM (inactive)
SK-MEL-5
  GI50: > 100 µM (inactive)
M19-MEL
  GI50: > 100 µM (inactive)
OVCAR-4
  GI50: > 100 µM (inactive)
M14
  GI50: > 100 µM (inactive)
LOX IMVI
  GI50: > 100 µM (inactive)
Malme-3M
  GI50: > 100 µM (inactive)
SNB-75
  GI50: 79.6 µM (inactive)
XF498
  GI50: 21.4 µM (inactive)
MOLT-4
  GI50: > 100 µM (inactive)
HT-29
  GI50: > 100 µM (inactive)
KM-20L2
  GI50: > 100 µM (inactive)
SF-268
  GI50: > 100 µM (inactive)
DLD-1
  GI50: > 100 µM (inactive)
UO-31
  GI50: > 100 µM (inactive)
EKVX
  GI50: > 100 µM (inactive)
LXFL 529
  GI50: > 100 µM (inactive)
HOP-92
  GI50: > 100 µM (inactive)
IGROV-1
  GI50: > 100 µM (inactive)
KM12
  GI50: > 100 µM (inactive)
HCT-116
  GI50: > 100 µM (inactive)

## COC(=O)C1=C(C(=O)OC)C(C(=O)OC)C(C(=O)OC)C(C(=O)OC)(C(=O)OC)C(C(=O)OC)=C1C(=O)OC (centres undefined)
HL-60
  GI50: 1.97 µM (inactive)
NCI-H226
  GI50: 15.9 µM (inactive)
SK-OV-3
  GI50: 27 µM (inactive)
SK-MEL-28
  GI50: 15.1 µM (inactive)
OVCAR-8
  GI50: 11.8 µM (inactive)
786-0
  GI50: 9.14 µM (inactive)
MDA-MB-435
  GI50: 18.7 µM (inactive)
HOP-62
  GI50: 32.3 µM (inactive)
MCF7
  GI50: 15.4 µM (inactive)
RXF 393
  GI50: 7.43 µM (inactive)
ACHN
  GI50: 14.7 µM (inactive)
OVCAR-3
  GI50: 15.1 µM (inactive)
MDA-N
  GI50: 17.1 µM (inactive)
CAKI-1
  GI50: 15.1 µM (inactive)
SF-539
  GI50: 17.7 µM (inactive)
U-251
  GI50: 16.9 µM (inactive)
TK-10
  GI50: 15.6 µM (inactive)
NCI-H23
  GI50: 18.6 µM (inactive)
NCI-H522
  GI50: 1.96 µM (inactive)
SF-295
  GI50: 19.2 µM (inactive)
SNB-19
  GI50: 17.6 µM (inactive)
A498
  GI50: 15.5 µM (inactive)
A549
  GI50: 21.2 µM (inactive)
HCC 2998
  GI50: 16.9 µM (inactive)
NCI-H460
  GI50: 19 µM (inactive)
HCT-15
  GI50: 8.39 µM
SR
  GI50: 0.285 µM (active)
BT-549
  GI50: 18.2 µM (inactive)
K562
  GI50: 3.4 µM (inactive)
SN12C
  GI50: 14.3 µM (inactive)
DMS-114
  GI50: 8.91 µM (inactive)
CCRF-CEM
  GI50: 2.77 µM (inactive)
UACC-62
  GI50: 15.5 µM (inactive)
Hs-578T
  GI50: 34.5 µM (inactive)
OVCAR-5
  GI50: 19.3 µM (inactive)
SNB-78
  GI50: 18.4 µM (inactive)
UACC-257
  GI50: 13.9 µM (inactive)
RPMI-8226
  GI50: 2.24 µM (inactive)
SW-620
  GI50: 5.08 µM (inactive)
HOP-18
  GI50: 17.1 µM (inactive)
SK-MEL-2
  GI50: 17.9 µM (inactive)
COLO 205
  GI50: 4.27 µM (inactive)
MDA-MB-231
  GI50: 20.9 µM (inactive)
SK-MEL-5
  GI50: 17.2 µM (inactive)
PC-3
  GI50: 16.5 µM (inactive)
M19-MEL
  GI50: 12.8 µM (inactive)
OVCAR-4
  GI50: 22.8 µM (inactive)
M14
  GI50: 15.1 µM (inactive)
LOX IMVI
  GI50: 13.5 µM (inactive)
Malme-3M
  GI50: 5.77 µM (inactive)
SNB-75
  GI50: 19.2 µM (inactive)
XF498
  GI50: 12.2 µM (inactive)
DU-145
  GI50: 18.2 µM (inactive)
MOLT-4
  GI50: 2.59 µM (inactive)
HT-29
  GI50: 13.3 µM (inactive)
KM-20L2
  GI50: 17.7 µM (inactive)
SF-268
  GI50: 19 µM (inactive)
DLD-1
  GI50: 1.81 µM (inactive)
UO-31
  GI50: 16.3 µM (inactive)
EKVX
  GI50: 18.3 µM (inactive)
LXFL 529
  GI50: 9.73 µM (inactive)
HOP-92
  GI50: 6.89 µM (inactive)
IGROV-1
  GI50: 18.1 µM (inactive)
KM12
  GI50: 17.1 µM (inactive)
T47D
  GI50: 21.9 µM (inactive)
HCT-116
  GI50: 7.36 µM (inactive)
